Experimental findings from US20230255953A1, “USE OF ROLUPERIDONE IN PREVENTING RELAPSE IN SCHIZOPHRENIA PATIENTS” (Minerva Neurosciences, Inc., priority 2022, published 2023) are described below.

The assay has as its system patients with negative symptoms of schizophrenia. As to the kind of experiment: Study #1 (MIN-101C03): CGI-S and CGI-I. It is filed as in vivo, human. The conditions noted are these: Week 12 DB, ITT. As to the method:
The CGI-S is a clinician-rated scale that is designed to rate the severity of the patient's illness at the time of assessment, including knowledge of the patient's history, psychosocial circumstances, symptoms, behavior, and the impact of the symptoms on the patient's ability to function relative to the clinician's past experience with patients who have the same diagnosis and similar improvement with treatment. Considering total clinical experience, a patient is assessed on severity of mental illness at the time of rating, where 1=normal (not at all ill); 2=borderline mentally ill; 3=mildly ill; 4=moderately ill; 5=markedly ill; 6=severely ill; or 7=extremely ill.
The CGI-S and CGI-I were assessed at the timepoints described in Table 7. The CGI-S and CGI-I were exploratory endpoints in Studies MIN-101C03 and MIN-101C07.
Phase 2b Study #1 (also referred to herein as “MIN-101C03”) was a Phase 2b, double-blind (“DB”), placebo-controlled, randomized, multicenter 12-week study to evaluate the efficacy, safety, and tolerability of Roluperidone in patients ≥18 years to ≤60 years with negative symptoms of schizophrenia, followed by a 24-week open-label (“OL”) extension. The primary objective of the study was to evaluate the efficacy of Roluperidone compared to placebo in improving the negative symptoms of schizophrenia as measured by the change from Baseline in the PANSS negative factor score of the PSM (“PANSS PSM”) over 12 weeks of treatment.
The study consisted of a pretreatment screening period of up to 28 days (including washout), a 12-week, DB, placebo-controlled period, and a 24-week OL period. Eligible patients (who were symptomatically stable for at least 3 months and had scores of at least 20 on the PANSS negative subscale score) were randomized in a 1:1:1 ratio to receive oral Roluperidone (a modified-release, “MR”, formulation) 32 mg QD, Roluperidone 64 mg QD, or placebo for 12 weeks. […] During the 24-week, OL treatment extension period, patients who were initially randomized to Roluperidone 32 mg or 64 mg continued on the same dose, while patients who were initially randomized to placebo crossed over to Roluperidone 32 mg or 64 mg in a 1:1 ratio.

For “1H-Isoindol-1-one,2-[ [1-[2-(4-fluorophenyl)-2-oxoethyl]-4-piperidinyl]methyl]-2,3-dihydro-, hydrochloride, hydrate (1:1:2) [Roluperidone]”, for the setting “32 mg QD”, the “Change from Baseline: Clinical Global Impression of Severity (observed change)” value is recorded as −0.40, the “Effect Size vs Placebo: Clinical Global Impression of Improvement” value was found to be 0.33 and the “Effect Size vs Placebo: Clinical Global Impression of Severity” value was found to be 0.35. For the setting “64 mg QD”, the “Change from Baseline: Clinical Global Impression of Severity (observed change)” value is given as −0.40 (0.1), the “Effect Size vs Placebo: Clinical Global Impression of Improvement” value was determined as 0.57 and the “Effect Size vs Placebo: Clinical Global Impression of Severity” value amounted to 0.43.
